Laboratory results reported in patent US20230263826A1, “Compositions and Methods for Treatment and Prevention of Type 1 Diabetes” (The UAB Research Foundation, priority 2021, published 2023).

How the values were obtained:
Type in all cases: in vivo, mouse
[1] = test system: female NOD mice; test: T1D incidence in female NOD mice administered FKGK18 (weekly blood glucose monitoring)
Experimental: FIGS. 1A-1M show the effects of temporal FKGK18 regimen on T1D incidence and islet phenotype, wherein female NOD mice were administered FKGK18 (20 mg/kg, 3 × weekly) or vehicle (PBS-T) starting at 4 or 8 weeks of age. FIGS. 1A and 1B show diabetes incidence; blood glucose was monitored weekly in the 4-week (FIG. 1A; n = 17 and 15 for PBS-T and FKGK18 groups, respectively) and 8-week (FIG. 1B; n = 15 each in the PBS-T and FKGK18 groups) regimen groups for up to 30 weeks. Two consecutive readings of ≥ 275 mg/dL were recorded as onset of T1D (^†P < 0.05). FIGS. 1C-1F show glucose tolerance test (GTT) results, wherein overnight fasted mice were administered glucose (2 g/kg, i.p.), glucose levels in blood from tail vein were monitored over a 2-hour period, and AUC were generated. FIGS. 1C and 1D show four-week group at 14 weeks of age; n = 5 each in the PBS-T and FKGK18 groups. FIGS. 1E and 1F show eight-week group at 25 weeks of age; n = 7 and 5 for PBS-T and FKGK18 groups, respectively. FIGS. 1G-1I show phenotype parameters in the 8-week regimen group. […] FIGS. 1H and 1I show β Cell mass (PBS-T, n = 15; FKGK18, n = 14) (FIG. 1H) and circulating insulin (n = 15 in each group) (FIG. 1I) were determined at sacrifice (PBS-T, 14-30 weeks of age; FKGK18, 16-36 weeks of age). FIGS. 1J and 1K show islet infiltration; paraffin sections (10 µm) of pancreas were prepared and stained with H&E. Percent infiltration for each islet was calculated as the value of noninfiltrated area subtracted from total islet area (% infiltrate = 100 × [(total area - noninfiltrated area)/(total area)]) using ImageJ software. (PBS-T, n = 14 and 166 islets; FKGK18, n = 15 and 260 islets). […] FIGS. 1L and 1M show islet immune cell phenotype; paraffin sections (10 µm) of pancreas were prepared and stained for CD4+-T cells or B (B220) cells. Data presented are mean ± SEM of CD4+ T cells or B cells per islet. […] Statistical analyses: (FIGS. 1A and 1B) Mantel-Cox test; (FIGS. 1D-1M) Student’s t test.
FIGS. 2A-2E show the effects of FKGK18-withdrawal regimen on T1D incidence and glucose tolerance, wherein female NOD mice were administered FKGK18 (20 mg/kg, 3 × weekly, n = 18) or vehicle (PBS-T, n = 17) starting at 10 days of age and until 14 weeks of age. […] FIGS. 2B and 2D show glucose tolerance test (GTT) results, assessed at 14 (FIG. 2B) and 25 (FIG. 2D) weeks of age (data are presented as mean ± SEM), as described in FIG. 1. FIGS. 2C and 2E show corresponding AUC. […]
Blood glucose levels were measured weekly via tail vein blood draw (2 µL) with Breeze 2 Blood Glucose Monitoring System (Bayer HealthCare). Diabetes incidence was based on 2 consecutive blood glucose readings ≥ 275 mg/dL, at which time the mouse was euthanized. […]

[2] = test system: female NOD mice; test: β cell mass and circulating insulin at sacrifice in FKGK18-treated NOD mice; details: 8-week regimen group
Experimental: (§1) FIGS. 1A-1M show the effects of temporal FKGK18 regimen on T1D incidence and islet phenotype, wherein female NOD mice were administered FKGK18 (20 mg/kg, 3 × weekly) or vehicle (PBS-T) starting at 4 or 8 weeks of age. FIGS. 1A and 1B show diabetes incidence; blood glucose was monitored weekly in the 4-week (FIG. 1A; n = 17 and 15 for PBS-T and FKGK18 groups, respectively) and 8-week (FIG. 1B; n = 15 each in the PBS-T and FKGK18 groups) regimen groups for up to 30 weeks. Two consecutive readings of ≥ 275 mg/dL were recorded as onset of T1D (^†P < 0.05). FIGS. 1C-1F show glucose tolerance test (GTT) results, wherein overnight fasted mice were administered glucose (2 g/kg, i.p.), glucose levels in blood from tail vein were monitored over a 2-hour period, and AUC were generated. […] FIGS. 1H and 1I show β Cell mass (PBS-T, n = 15; FKGK18, n = 14) (FIG. 1H) and circulating insulin (n = 15 in each group) (FIG. 1I) were determined at sacrifice (PBS-T, 14-30 weeks of age; FKGK18, 16-36 weeks of age). FIGS. 1J and 1K show islet infiltration; paraffin sections (10 µm) of pancreas were prepared and stained with H&E. Percent infiltration for each islet was calculated as the value of noninfiltrated area subtracted from total islet area (% infiltrate = 100 × [(total area - noninfiltrated area)/(total area)]) using ImageJ software. […]

[3] = test system: female NOD mice; test: Islet infiltration and islet immune cell phenotype (H&E, CD4+ T cell and B220 staining of pancreas sections); details: 8-week regimen group
Experimental: as §1, with “generated. FIGS. 1C and 1D show four-week group at 14 weeks of age; n = 5 each in the PBS-T and FKGK18 groups. FIGS. 1E and 1F show eight-week group at 25 weeks of age; n = 7 and 5 for PBS-T and FKGK18 groups, respectively. FIGS. 1G-1I show phenotype parameters in the 8-week regimen group.” for “generated.”, “software. (PBS-T, n = 14 and 166 islets; FKGK18, n = 15 and 260 islets).” for “software.”
Blood glucose levels were measured weekly via tail vein blood draw (2 µL) with Breeze 2 Blood Glucose Monitoring System (Bayer HealthCare). Diabetes incidence was based on 2 consecutive blood glucose readings ≥ 275 mg/dL, at which time the mouse was euthanized. […] Pancreas section and islet images were captured on an Olympus IX81 microscope using cellSens Dimension software and analyzed using ImageJ software (NIH).

O=C(CCCCc1ccc2ccccc2c1)C(F)(F)F [FKGK18]
mice that remained diabetes free ([1]; FKGK18 20 mg/kg i.p. 3 times/week starting at 4 weeks of age, monitored up to 30 weeks, PBS-T 80% T1D incidence): 40% | T1D incidence vs corresponding PBS-T group ([1]; FKGK18 20 mg/kg i.p. 3 times/week starting at 8 weeks of age, modest delay): not significantly different | NOD that developed T1D ([1]; FKGK18 20 mg/kg i.p. 3 times/week starting at 10 days of age, by 25-30 weeks of age, vehicle 80%-90% diabetic, data not shown): 10%-15% | decreased T1D incidence after FKGK18 withdrawal ([1]; FKGK18 from 10 days until 14 weeks of age, then withdrawn, monitored up to 30 weeks): not evident | β cell mass vs PBS-T [2]: similar | circulating insulin vs PBS-T ([2]; nonfasting): higher | pancreatic islet abundance of B cells relative to PBS-T [3]: significantly reduced | pancreatic islet abundance of CD4+ T cells relative to PBS-T [3]: significantly reduced | islet infiltration vs PBS-T ([3]; H&E pancreas sections): reduced
